Measured values from article PMC11898701, “Evaluating Therapeutic Efficacy of the Vascular Disrupting Agent OXi8007 Against Kidney Cancer in Mice” (Cancers, 2025).
Like-named read-outs stand apart in the source and are kept apart here. Marks after values point to notes of the source that are not given here.

Columns and labels:
Renca-luc cells = assay: Renca-luc sulforhodamine B (SRB) assay, cell growth inhibition; type: cell-based; conditions: Mus musculus; Renca-luc cells, SRB, 48 h treatment; read-out: IC50
Procedure: (§1) In two independent trials of Renca and Renca-luc cells were plated in triplicate at 8000 cells/well into 96-well plates and incubated for 24 h at 37 °C in a humidified incubator with 5% CO2 followed by a 48 h treatment period at ten-fold dilutions of the drug.

Renca cells = assay: Renca sulforhodamine B (SRB) assay, cell growth inhibition; type: cell-based; conditions: Mus musculus; Renca cells, SRB, 48 h treatment; read-out: IC50
Procedure: as §1

[1] = Pharmacokinetic study in Renca-luc tumor-bearing BALB/c mice; type: in vivo, mouse; conditions: for Tmax: read-out: Tmax (converted)
Procedure: Plasma and tissues were harvested at various time points (20 min to 16 h) from Renca-luc tumor-bearing BALB/c male mice following the administration of OXi8007 IP. Mice treated with 250 mg/kg were sacrificed at 20 min (n = 3), 1 h (n = 4), 2 h (n = 4), 4 h (n = 4), 8 h (n = 4), and 16 h (n = 4). Mice were anesthetized, exsanguinated, the tissues were blotted, and then they were weighed and frozen in liquid nitrogen. Homogenized plasma and tissue samples were extracted with acetonitrile with a bead mill; internal standard (CA4 or tri-labeled ^13C-OXi8006) was added to each sample to reach a final concentration of 10 ppb. Samples were centrifuged twice to remove precipitated proteins (16,260× g for 10 min at 4 °C). Clear supernatant was transferred into MS vials, and formic acid was added to a final concentration of 0.1% for LC-MS analysis. […] Mobile phase A consisted of 0.1% v/v formic acid in water, and mobile phase B was acetonitrile, which was mixed by the binary pump with an elution gradient at a flow rate of 0.6 mL/min. Data were analyzed using Xcalibur 4.6 software based on exact masses, and Phoenix WinNonlin 8.5.0 software was used to determine the pharmacokinetic parameters based on a non-compartmental model.

[2] = Blood pressure assessment (CODA system); type: in vivo, mouse
Procedure: Blood pressure was measured using a CODA system (Kent Scientific, Torrington, CT, USA) on 5 adult male BALB/c mice. Mice were anesthetized with 2% isoflurane in oxygen at 1 dm^3/min and placed on the CODA IR heating pad with a feedback rectal temperature probe and nosecone to maintain anesthesia. An occlusion cuff and VPR cuff were placed on the tail. The baseline measurement was recorded over 30 min, then OXi8007 (250 mg/kg or 325 mg/kg) was administered IP and the blood pressure measurement resumed for 45 min. As positive and negative controls, hydralazine (1 mg/kg) or saline, respectively, were injected IP.

[3] = male, BALB/c, mouse, ip, glucuronide metabolite, brain, after OXi8007 250 mg/kg
[4] = male, BALB/c, mouse, ip, glucuronide metabolite, heart, after OXi8007 250 mg/kg
[5] = male, BALB/c, mouse, ip, glucuronide metabolite, left kidney, after OXi8007 250 mg/kg
[6] = male, BALB/c, mouse, ip, glucuronide metabolite, liver, after OXi8007 250 mg/kg
[7] = male, BALB/c, mouse, ip, glucuronide metabolite, lungs, after OXi8007 250 mg/kg
[8] = male, BALB/c, mouse, ip, glucuronide metabolite, plasma, after OXi8007 250 mg/kg
[9] = male, BALB/c, mouse, ip, glucuronide metabolite, spleen, after OXi8007 250 mg/kg
[10] = male, BALB/c, mouse, ip, glucuronide metabolite, tumor, after OXi8007 250 mg/kg
[11] = male, BALB/c, mouse, in vivo, ip, 250 mg/kg, brain, after OXi8007 250 mg/kg IP
[12] = male, BALB/c, mouse, in vivo, ip, 250 mg/kg, heart, after OXi8007 250 mg/kg IP
[13] = male, BALB/c, mouse, in vivo, ip, 250 mg/kg, left kidney, after OXi8007 250 mg/kg IP
[14] = male, BALB/c, mouse, in vivo, ip, 250 mg/kg, liver, after OXi8007 250 mg/kg IP
[15] = male, BALB/c, mouse, in vivo, ip, 250 mg/kg, lungs, after OXi8007 250 mg/kg IP
[16] = male, BALB/c, mouse, in vivo, ip, 250 mg/kg, plasma, after OXi8007 250 mg/kg IP
[17] = male, BALB/c, mouse, in vivo, ip, 250 mg/kg, spleen, after OXi8007 250 mg/kg IP
[18] = male, BALB/c, mouse, in vivo, ip, 250 mg/kg, tumor and right kidney, after OXi8007 250 mg/kg IP

COc1ccc(/C=C\c2cc(OC)c(OC)c(OC)c2)cc1O [CA4, combretastatin A-4, reference compound]
IC50 (Renca-luc cells): 109 ± 23 nM
IC50 (Renca cells): 48 ± 2 nM

COc1ccc2c(C(=O)c3cc(OC)c(OC)c(OC)c3)c(-c3ccc(OC)c(O[C@@H]4O[C@H](C(=O)O)[C@@H](O)[C@H](O)[C@H]4O)c3)[nH]c2c1 [OXi8006 Glucuronide]
Cmax ([1]; glucuronide metabolite, brain, counts per tissue sample (40 mg), after OXi8007 250 mg/kg): 0.95 counts × 10^−6
AUC ([1]; glucuronide metabolite, brain, after OXi8007 250 mg/kg): 4.13 h × counts × 10^−6
Cmax ([1]; glucuronide metabolite, heart, counts per tissue sample (40 mg), after OXi8007 250 mg/kg): 9.8 counts × 10^−6
AUC ([1]; glucuronide metabolite, heart, after OXi8007 250 mg/kg): 24.52 h × counts × 10^−6
Cmax ([1]; glucuronide metabolite, left kidney, counts per tissue sample (40 mg), after OXi8007 250 mg/kg): 87.2 counts × 10^−6
AUC ([1]; glucuronide metabolite, left kidney, after OXi8007 250 mg/kg): 180.6 h × counts × 10^−6
Cmax ([1]; glucuronide metabolite, liver, counts per tissue sample (40 mg), after OXi8007 250 mg/kg): 28.23 counts × 10^−6
AUC ([1]; glucuronide metabolite, liver, after OXi8007 250 mg/kg): 128.7 h × counts × 10^−6
Cmax ([1]; glucuronide metabolite, lungs, counts per tissue sample (40 mg), after OXi8007 250 mg/kg): 20.87 counts × 10^−6
AUC ([1]; glucuronide metabolite, lungs, after OXi8007 250 mg/kg): 69.33 h × counts × 10^−6
Cmax ([1]; glucuronide metabolite, plasma, counts per mL, no precise calibration, after OXi8007 250 mg/kg): 1266 counts × 10^−6
AUC ([1]; glucuronide metabolite, plasma, no precise calibration, after OXi8007 250 mg/kg): 3490 h × counts × 10^−6
Cmax ([1]; glucuronide metabolite, spleen, counts per tissue sample (40 mg), after OXi8007 250 mg/kg): 6.33 counts × 10^−6
AUC ([1]; glucuronide metabolite, spleen, after OXi8007 250 mg/kg): 18.39 h × counts × 10^−6
Cmax ([1]; glucuronide metabolite, tumor, counts per tissue sample (40 mg), after OXi8007 250 mg/kg): 11.65 counts × 10^−6
AUC ([1]; glucuronide metabolite, tumor, after OXi8007 250 mg/kg): 118.22 h × counts × 10^−6
half-life [1, 3]: 1.15 h
Tmax [1, 3]: 1 h
half-life [1, 4]: 1.61 h
Tmax [1, 4]: 1 h
half-life [1, 5]: 3.75 h
Tmax [1, 5]: 1 h
half-life [1, 6]: 3.37 h
Tmax [1, 6]: 1 h
half-life [1, 7]: 2.05 h
Tmax [1, 7]: 1 h
half-life [1, 8]: 1.95 h
Tmax [1, 8]: 1 h
half-life [1, 9]: 2.2 h
Tmax [1, 9]: 1 h
half-life [1, 10]: 5.87 h
Tmax [1, 10]: 4 h

COc1ccc2c(C(=O)c3cc(OC)c(OC)c(OC)c3)c(-c3ccc(OC)c(O)c3)[nH]c2c1 [OXi8006]
AUC ([1]; brain, after OXi8007 250 mg/kg IP): 0.54 ng·h/mg
AUC ([1]; heart, after OXi8007 250 mg/kg IP): 9.04 ng·h/mg
AUC ([1]; left kidney, after OXi8007 250 mg/kg IP): 8.72 ng·h/mg
AUC ([1]; liver, after OXi8007 250 mg/kg IP): 18.19 ng·h/mg
AUC ([1]; lungs, after OXi8007 250 mg/kg IP): 9.45 ng·h/mg
half-life [1, 11]: 1.71 h
Cmax ([1]; male, BALB/c, mouse, in vivo, ip, 250 mg/kg, brain, after OXi8007 250 mg/kg IP, read-out: Cmax): 220 ng/g
Tmax [1, 11]: 0.333 h
half-life [1, 12]: 2.02 h
Cmax ([1]; male, BALB/c, mouse, in vivo, ip, 250 mg/kg, heart, after OXi8007 250 mg/kg IP, read-out: Cmax): 5310 ng/g
Tmax [1, 12]: 0.333 h
half-life [1, 13]: 1.73 h
Cmax ([1]; male, BALB/c, mouse, in vivo, ip, 250 mg/kg, left kidney, after OXi8007 250 mg/kg IP, read-out: Cmax): 5860 ng/g
Tmax [1, 13]: 0.333 h
half-life [1, 14]: 2.25 h
Cmax ([1]; male, BALB/c, mouse, in vivo, ip, 250 mg/kg, liver, after OXi8007 250 mg/kg IP, read-out: Cmax): 9160 ng/g
Tmax [1, 14]: 0.333 h
half-life [1, 15]: 2.56 h
Cmax ([1]; male, BALB/c, mouse, in vivo, ip, 250 mg/kg, lungs, after OXi8007 250 mg/kg IP, read-out: Cmax): 4180 ng/g
Tmax [1, 15]: 0.333 h
half-life [1, 16]: 1.98 h
half-life ([1]; male, BALB/c, mouse, in vivo, ip, 250 mg/kg, plasma, after OXi8007 250 mg/kg IP, Renca-luc tumor-bearing BALB/c mice): 1.99 h
Cmax ([1]; male, BALB/c, mouse, in vivo, ip, 250 mg/kg, plasma, after OXi8007 250 mg/kg IP, read-out: Cmax): 29000 ng/mL
Tmax [1, 16]: 0.333 h
half-life [1, 17]: 1.72 h
Cmax ([1]; male, BALB/c, mouse, in vivo, ip, 250 mg/kg, spleen, after OXi8007 250 mg/kg IP, read-out: Cmax): 4450 ng/g
Tmax [1, 17]: 0.333 h
half-life [1, 18]: 4.23 h
Cmax ([1]; male, BALB/c, mouse, in vivo, ip, 250 mg/kg, tumor and right kidney, after OXi8007 250 mg/kg IP, read-out: Cmax): 2390 ng/g
Tmax [1, 18]: 1 h
AUC ([1]; plasma, after OXi8007 250 mg/kg IP, zero to last quantifiable concentration): 47 ^# h × ng/µL
AUC ([1]; spleen, after OXi8007 250 mg/kg IP): 9.88 ng·h/mg
AUC ([1]; tumor and right kidney, after OXi8007 250 mg/kg IP): 10.24 ng·h/mg

NNc1nncc2ccccc12 [hydralazine, reference compound]
Hypotension (Δ BP) ([2]; 1 mg/kg): ~ 35 mmHg
Drop in diastolic blood pressure (Δ) ([2]; 1 mg/kg IP): 31 mmHg
Drop in mean blood pressure (Δ) ([2]; 1 mg/kg IP): 34 mmHg
Drop in systolic blood pressure (Δ) ([2]; 1 mg/kg IP): 40 mmHg
Drop in blood pressure ([2]; 1 mg/kg IP, positive control): about 30%
